From ChEMBL document CHEMBL4043140, “Synthesis of different heterocycles-linked chalcone conjugates as cytotoxic agents and tubulin polymerization inhibitors” (Bioorg Med Chem, 2017)
Active and inactive are the calls of the source. No cut-off for these calls is given here.

Tests used:
[1] = test system: HCT-116; assay: Antiproliferative activity against human HCT116 cells after 48 hrs by MTT assay; type: functional, cell-based; conditions: HCT-116, 48 h
[2] = test system: HCT-15; assay: Antiproliferative activity against human HCT15 cells after 48 hrs by MTT assay; type: functional, cell-based; conditions: HCT-15, 48 h
[3] = test system: NCI-H460; assay: Antiproliferative activity against human NCI-H460 cells after 48 hrs by MTT assay; type: functional, cell-based; conditions: NCI-H460, 48 h
[4] = Antiproliferative activity against human U87 cells after 48 hrs by MTT assay; type: functional, cell-based, U-87MG ATCC; conditions: U-87 MG
[5] = test system: DU-145; assay: Antiproliferative activity against human DU145 cells after 48 hrs by MTT assay; type: functional, cell-based; conditions: DU-145, 48 h
[6] = test system: PC-3; assay: Antiproliferative activity against human PC3 cells after 48 hrs by MTT assay; type: functional, cell-based; conditions: PC-3, 48 h
[7] = test system: A549; assay: Antiproliferative activity against human A549 cells after 48 hrs by MTT assay; type: functional, cell-based; conditions: A549, 48 h
[8] = test system: NCI-H460; assay: Induction of morphological changes in human NCI-H460 cells assessed as […] deformation at 1.25 to 5 uM after 48 hrs by phase contrast microscopic analysis; type: functional, cell-based
[9] = test system: NCI-H460; assay: Induction of morphological changes in human NCI-H460 cells assessed as cell shrinkage at 1.25 to 5 uM after 48 hrs by phase contrast microscopic analysis; type: functional, cell-based
[10] = test system: NCI-H460; assay: Induction of apoptosis in human NCI-H460 cells assessed as reduction in viable cells at 1.25 to 5 uM after 48 hrs by phase contrast microscopic analysis; type: functional, cell-based
[11] = test system: NCI-H460; assay: Induction of apoptosis in human NCI-H460 cells assessed as horse-shoe shaped nuclei at 2.5 to 10 uM after 24 hrs by DAPI staining-based fluorescence microscopic analysis; type: functional, cell-based
[12] = test system: NCI-H460; assay: Induction of reactive oxygen species generation in human NCI-H460 cells after 6 hrs by DCFDA staining-based method; type: functional, cell-based
[13] = test system: NCI-H460; assay: Induction of reactive oxygen species generation in human NCI-H460 cells after 6 hrs in presence of NAC by DCFDA staining-based method; type: functional, cell-based
[14] = Inhibition of porcine brain tubulin polymerization after 1 hr in presence of GTP by fluorescence assay; set-up: species or system Sus scrofa
[15] = test system: NCI-H460; assay: Cell cycle arrest in human NCI-H460 cells assessed as accumulation at G0/G1 phase at 1.25 uM after 24 hrs by propidium iodide staining-based flow cytometry (reference value: 49.17%); type: functional
[16] = test system: NCI-H460; assay: Cell cycle arrest in human NCI-H460 cells assessed as accumulation at S phase at 1.25 uM after 24 hrs by propidium iodide staining-based flow cytometry (reference value: 15.55%); type: functional
[17] = test system: NCI-H460; assay: Cell cycle arrest in human NCI-H460 cells assessed as accumulation at G2/M phase at 1.25 uM after 24 hrs by propidium iodide staining-based flow cytometry (reference value: 34.71%); type: functional
[18] = test system: NCI-H460; assay: Cell cycle arrest in human NCI-H460 cells assessed as accumulation at G0/G1 phase at 2.5 uM after 24 hrs by propidium iodide staining-based flow cytometry (reference value: 49.17%); type: functional
[19] = test system: NCI-H460; assay: Cell cycle arrest in human NCI-H460 cells assessed as accumulation at S phase at 2.5 uM after 24 hrs by propidium iodide staining-based flow cytometry (reference value: 15.55%); type: functional
[20] = test system: NCI-H460; assay: Cell cycle arrest in human NCI-H460 cells assessed as accumulation at G2/M phase at 2.5 uM after 24 hrs by propidium iodide staining-based flow cytometry (reference value: 34.71%); type: functional
[21] = test system: NCI-H460; assay: Cell cycle arrest in human NCI-H460 cells assessed as accumulation at G0/G1 phase at 5 uM after 24 hrs by propidium iodide staining-based flow cytometry (reference value: 49.17%); type: functional
[22] = test system: NCI-H460; assay: Cell cycle arrest in human NCI-H460 cells assessed as accumulation at S phase at 5 uM after 24 hrs by propidium iodide staining-based flow cytometry (reference value: 15.55%); type: functional
[23] = test system: NCI-H460; assay: Cell cycle arrest in human NCI-H460 cells assessed as accumulation at G2/M phase at 5 uM after 24 hrs by propidium iodide staining-based flow cytometry (reference value: 34.71%); type: functional

SMILES | IC50 [1] | IC50 [2] | IC50 [3] | IC50 [4] | IC50 [5] | IC50 [6] | IC50 [7] | further results
COc1cc(/C=C/C(=O)c2ccc(Br)cc2)ccc1OCCCCN1CCCCC1 | > 20 µM | 8.97 µM | > 20 µM | 4.01 µM | > 20 µM | 7.54 µM | 9.06 µM | –
COc1cc(/C=C/C(=O)c2ccc(Cl)cc2Cl)ccc1OCCCN1CCCc2ccccc21 | > 20 µM | > 20 µM | > 20 µM | > 20 µM | > 20 µM | 8.17 µM | > 20 µM | –
COc1cc(/C=C/C(=O)c2ccccc2)ccc1OCCCCN1CCCCC1 | > 20 µM | > 20 µM | > 20 µM | > 20 µM | > 20 µM | 9.18 µM | > 20 µM | –
COc1cc(/C=C/C(=O)c2ccc(Cl)cc2)ccc1OCCCCN1CCCCC1 | > 20 µM | 8.11 µM | 10.2 µM | 8.01 µM | 7.74 µM | 6.84 µM | 8.99 µM | –
COc1cc(/C=C/C(=O)c2ccccc2)ccc1OCCCN1CCCc2ccccc21 | > 20 µM | > 20 µM | > 20 µM | 19.8 µM | > 20 µM | > 20 µM | > 20 µM | –
COc1cc(/C=C/C(=O)c2ccc(Br)cc2)ccc1OCCN1CCOCC1 | > 20 µM | > 20 µM | > 20 µM | > 20 µM | 9.74 µM | 8.89 µM | 12.1 µM | –
COc1cc(/C=C/C(=O)c2ccc(Cl)cc2Cl)ccc1OCCCN1CCc2ccccc21 | 19.2 µM | > 20 µM | > 20 µM | 19.8 µM | > 20 µM | > 20 µM | > 20 µM | –
COc1cc(/C=C/C(=O)c2ccccc2O)ccc1OCCCN1CCCCC1 | 2.01 µM | 3.24 µM | 1.63 µM | 2.87 µM | 2.73 µM | 1.95 µM | 3.13 µM | –
COc1cc(/C=C/C(=O)c2ccc(Br)cc2)ccc1OCCCN1CCCc2ccccc21 | > 20 µM | > 20 µM | > 20 µM | > 20 µM | > 20 µM | > 20 µM | 19.1 µM | –
COc1ccc(C(=O)/C=C/c2ccc(OCCCn3nc(C)cc3C)c(OC)c2)cc1 | 3.97 µM | 4.03 µM | 8.96 µM | 6.93 µM | 5.74 µM | 4.78 µM | 3.7 µM | –
COc1cc(/C=C/C(=O)c2ccc(Cl)cc2)ccc1OCCCN1CCCc2ccccc21 | > 20 µM | > 20 µM | > 20 µM | 16.2 µM | 18.1 µM | > 20 µM | > 20 µM | –
COc1cc(/C=C/C(=O)c2ccc(Cl)cc2Cl)ccc1OCCCN1CC(C)OC(C)C1 (stereo unspecified) | > 20 µM | > 20 µM | > 20 µM | > 20 µM | > 20 µM | 8.87 µM | > 20 µM | –
COc1ccc(C(=O)/C=C/c2ccc(OCCCN3CCc4ccccc43)c(OC)c2)cc1 | > 20 µM | 19.9 µM | > 20 µM | 15.2 µM | 16.1 µM | > 20 µM | 18.7 µM | –
COc1ccc(C(=O)/C=C/c2ccc(OCCCN3CCCCC3)c(OC)c2)cc1 | 1.73 µM | 5.34 µM | 1.48 µM | 6.3 µM | 5.08 µM | 9.53 µM | 3.29 µM | Activity [8]: Active; Activity [9]: Active; Activity [10]: Active; Activity [11]: Active; Activity [12]: Dose-dependent effect; Activity [13]: inactive; IC50 [14]: 9.66 µM; Activity [15]: 47.5%; Activity [16]: 12.21%; Activity [17]: 39.3%; Activity [18]: 46.74%; Activity [19]: 9.3%; Activity [20]: 42.88%; Activity [21]: 42.8%; Activity [22]: 8.12%; Activity [23]: 48.85%
COc1ccc(C(=O)/C=C/c2ccc(OCCCN3CC(C)OC(C)C3)c(OC)c2)cc1 (stereo unspecified) | 7.87 µM | 8.64 µM | 4.18 µM | 5.67 µM | 3.27 µM | > 20 µM | 7.42 µM | –
COc1ccc(C(=O)/C=C/c2ccc(OCCCN3CCCc4ccccc43)c(OC)c2)cc1 | > 20 µM | > 20 µM | > 20 µM | 18.2 µM | > 20 µM | > 20 µM | > 20 µM | –
COc1cc(/C=C/C(=O)c2ccc(Cl)cc2Cl)ccc1OCCN1CCOCC1 | 19.9 µM | 18.2 µM | > 20 µM | > 20 µM | 6.74 µM | 5.12 µM | > 20 µM | –
COc1cc(/C=C/C(=O)c2ccc(Br)cc2)ccc1OCCCN1CCCCC1 | > 20 µM | > 20 µM | 8.16 µM | > 20 µM | 17.1 µM | 8.93 µM | 16.5 µM | –
COc1cc(/C=C/C(=O)c2ccc(C)cc2)ccc1OCCCN1CC(C)OC(C)C1 (stereo unspecified) | 5.45 µM | 8.69 µM | > 20 µM | 4.21 µM | > 20 µM | > 20 µM | 9.12 µM | –
COc1ccc(/C=C\c2cc(OC)c(OC)c(OC)c2)cc1O [COMBRETASTATIN A4] | 9.12 µM | 8.87 µM | 0.048 µM | 9.75 µM | 0.28 µM | 3.53 µM | 9.29 µM | –
COc1ccc(C(=O)/C=C/c2ccc(OCCCN3CCOCC3)c(OC)c2)cc1 | 6.78 µM | 11 µM | 9.89 µM | 7.12 µM | 2.02 µM | 7.89 µM | 5.36 µM | –
COc1cc(/C=C/C(=O)c2ccc(Cl)cc2Cl)ccc1OCCCCN1CCCCC1 | > 20 µM | > 20 µM | 16.3 µM | 6.09 µM | 5.73 µM | 7.29 µM | 9.48 µM | –
COc1cc(/C=C/C(=O)c2ccc(C(F)(F)F)cc2)ccc1OCCN1CCOCC1 | > 20 µM | > 20 µM | > 20 µM | > 20 µM | > 20 µM | 6.17 µM | 19.1 µM | –
COc1ccc(C(=O)/C=C/c2ccc(OCCN3CCOCC3)c(OC)c2)cc1 | > 20 µM | 7.54 µM | 9.96 µM | 7.09 µM | 8.74 µM | 9.19 µM | 8.21 µM | –
COc1cc(/C=C/C(=O)c2ccccc2OC)ccc1OCCCN1CC(C)OC(C)C1 (stereo unspecified) | 6.48 µM | 6.36 µM | 8.1 µM | 5.03 µM | 3.87 µM | > 20 µM | 5.32 µM | –
